Reference: patent US8618178B2, “Method and substances for treating T-cell mediated autoimmune diseases” (Eberhard-Karls-Universitaet Tuebingen Universitaetsklinikum, priority 2006, dated 2013)
“Also recorded” adds a separate entry of the source. Where a name gives a salt, the structure may show the parent alone.

Legend:
BMDC = assay: Measurement of reactive oxygen species (ROS) in DC with dichlorofluorescein, flow cytometry; assay type: cell-based, mouse; conditions: dichlorofluorescein, flow cytometry
Description: For the measurement of reactive oxygen species (ROS) in DC and APC, the fluorescent dye 2′,7′ dichlorofluorescein (H2 DCFDA, Molecular Probes, Eugene, USA) was used. 5×10^5 DC were preincubated in 1 ml of RPMI medium (without mercaptoethanol) for 60 mins at 37° C. in the incubator with 1% DMSO or 10 μg/ml DMF+/−NAC (1 mM) or GSX (1 mM). After this preincubation, 1 μM/ml H2 DCFDA was added and the cells incubated for a further 30 mins at 37° C. Within one hour, the fluorescence produced was detected using flow cytometry (FL1).
(§1) As antigen presenting cells (APC), T cell depleted spleen cells from syngenic mice were used. Dendritic cells (DC) which were obtained from bone marrow (BMDC) and cultured with GM-CSF were used for the relevant experiments on day 7 of culturing. For the experiment, in each case an equal number of APC were cultured either with the medium alone, with L-BSO (C8H18N2O3S, 0.5 mM), dimethyl sulfoxide DMSO(C2H6OS), dimethyl fumarate DMF (C6H8O4, dissolved in DMSO, 70 μM), or calcium monomethyl fumarate (MMF; CaC10H10O8, 200 μM). All substances except for MMF (Fumapharm) were purchased from Sigma-Aldrich. At the respective stated times (see below) the cells were either analyzed directly for their GSH content, used for T cell stimulation or stimulated for IL-2 production with Escherichia coli lipopolysaccharides 055.B5 (Sigma-Aldrich) or CpG-DNA 1668 (MWG Biotech) and IL-4 (Stratmann). In order to raise the GSH level again, 1 mM GSH-OEt (C12H21N3O6S; Sigma-Aldrich) or 1 mM NAC (Sigma-Aldrich) was added.
For testing the potential of pharmaceutical substances to induce the ROS, the following procedure was developed: for the measurement of reactive oxygen species (ROS) in cells, the fluorescent dye 2′,7′ dichlorofluorescein (H2 DCFDA) is used. The absorption spectrum of the substance is 492-495 nm and the emission spectrum lies in the range between 517-527 nm. On induction of cell stress, e.g., by the administration of ROS-causing reagents, oxidation of the H2 DCFDA to DCFDA+H2 occurs. The fluorescence arising as a result can be detected using flow cytometry (FL1).

IL-12 = IL-12 production by DC, ELISA of culture supernatants; assay type: cell-based, mouse; conditions: after stimulation with LPS
Description: IL-4, IL-10, IL-12 and interferon-γ were determined using the ELISA (enzyme linked immunosorbent assay) set or with the use of individual components from BD BioSciences. IL-23 in the supernatant was determined using the ELISA set (eBioscience). For intracytoplasmic cytokine analyses, the T cells were restimulated with PMA/ionomycin or with APC and peptide in the presence of brefeldin A, then fixed and permeabilized and stained. For the surface staining, anti-CD4 or KJ1-26 antibodies were used; the cytokine antibodies (PE labeled) were all obtained from BD Pharmingen.
as §1, with “used for T cell stimulation or stimulated for IL-2 production with Escherichia coli lipopolysaccharides” left out

[1] = test system: experimental autoimmune encephalomyelitis (EAE); assay: EAE after transfer of in vitro generated PLP-specific T cells into naive SJL mice; assay type: in vivo; conditions: 10^7 lymphocytes injected into naive SJL mice
Description: Spleen and lymph node CD4^+ T cells were stimulated with PLP (proteolipid protein) peptide 139-151 (10 μg/ml) and stimulated for four days with irradiated SJL-APC in the presence or absence of L-BSO (0.5 mM, Sigma), expanded for three to four days and then restimulated for cytokine production (proteolipid protein is the commonest myelin protein in the central nervous system and plays an important part as an autoantigen in the onset of multiple sclerosis). Next, 10^7 sham (control) or L-BSO treated T cells were injected intraperitoneally into naive SJL mice and the EAE developing as a result was observed. […] Half of the group was fed daily for 14 days with DMF 0.3 mg/ml (Fluka) or L-BSO 0.15 mg/ml in the drinking water. For the cytokine analysis of PLP-specific T cells, the draining lymph nodes of the SJL mice were removed 6 days after the immunization and CD4^+ T cells antigen-specifically analyzed (ELISPOT). For this, ELISPOT plates (Millipore Corporation) were coated with anti-IFN-γ or anti-IL-4 antibodies overnight at 4° C., blocked after 12 hrs with PBS/10% FCS and, after the solution had been poured off, the isolated T lymphocytes were incubated with APC and medium alone or in the presence of PLP peptide. After the incubation time, the cells were poured off, and the plates washed with PBS/Tween and incubated with biotin-conjugated secondary antibodies. After further washing procedures and incubation with streptavidin-alkaline phosphatase (Boehringer), the plates were incubated with developer solution. After washing with H2O, the number of spots was determined in the ELISPOT reader (Biosys).
Since the induction of the TH2 phenotype could adversely affect the ability of the CD4^+ T cells to induce autoimmune diseases in immunocompetent mice, it was concluded that GSH^lowIL12^−DC2 could weaken the ability of autoreactive CD4^+ T cells to induce the disease. For the next experiments, lymphocytes from SJL mice were stimulated twice with PLP peptide, either in the presence or absence of L-BSO, DMF or MMF. […]

SMILES | intracellular ROS in DC (BMDC) | IL-12 production by DC (IL-12) | ability of T cells generated in the presence of the substance to induce EAE [1]
COC(=O)/C=C/C(=O)OC [DMF, dimethyl fumarate] | rise in ROS | strong suppression of IL-12 production; also recorded: markedly less; also recorded: markedly decreased capacity to produce IL-12 | not able to trigger severe encephalomyelitis
CCCCS(=N)(=O)CCC(N)C(=O)O [L-BSO, L-buthionine sulfoximine] | rise in intracellular ROS | strong suppression of IL-12 production; also recorded: markedly decreased capacity to produce IL-12 | scarcely still capable of inducing EAE in vivo
COC(=O)/C=C/C(=O)[O-].[Ca+] [MMF, calcium monomethyl fumarate] | induces ROS | strong suppression of IL-12 production; also recorded: markedly decreased capacity to produce IL-12 | not able to trigger severe encephalomyelitis
